Measured values from ChEMBL document CHEMBL1201862, “PubChem BioAssay data set” (2004).
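Step 1: Grow cells in 96-well plates. Step 2: Expose to compound for 48 hours at 5 concentrations. Step 3: Interpolate endpoints linearly; if unreached, use highest concentration. At the GI50, growth is halved.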 The source made the active and inactive calls. Cut-off read from the data, not from the text of the source: active = GI50 up to about 1.1 µM and inactive = higher.

How the values were obtained:
Assay in all cases: DTP human tumour cell line panel, 48 h
[1] = system: A498
[2] = system: A549
[3] = system: HCT-116
[4] = system: HCT-15
[5] = system: HOP-62
[6] = system: K562
[7] = system: NCI-H460
[8] = system: OVCAR-4
[9] = system: RXF 393
[10] = system: SF-268
[11] = system: SF-295
[12] = system: SK-MEL-2
[13] = system: SNB-19
[14] = system: UO-31
[15] = system: OVCAR-5
[16] = system: SK-OV-3

Row | Compound | GI50 [1] | GI50 [2] | GI50 [3] | GI50 [4] [µM] | GI50 [5] | GI50 [6] | GI50 [7] | GI50 [8] | GI50 [9] | GI50 [10] | GI50 [11] | GI50 [12] | GI50 [13] | GI50 [14] | GI50 [15] | GI50 [16]
1 | COc1ccc(/C(=N/Nc2ccccc2)C(c2ccc(OC)cc2)C2OC(=O)c3ccccc32)cc1 (stereo not given) | > 100 µM (inactive) | 99.3 µM (inactive) | > 100 µM (inactive) | > 100 | > 100 µM (inactive) | 31.8 µM (inactive) | 95.7 µM (inactive) | > 100 µM (inactive) | > 10 µM (inactive) | 23.3 µM (inactive) | > 100 µM (inactive) | > 100 µM (inactive) | > 100 µM (inactive) | 60.7 µM (inactive) |  | 
2 | CC(=O)Nc1c(C)ccc2c1C(=O)c1ccccc1C2=O | > 100 µM (inactive) | > 100 µM (inactive) | 91.8 µM (inactive) | > 100 | > 100 µM (inactive) | > 100 µM (inactive) | > 100 µM (inactive) | > 100 µM (inactive) | > 100 µM (inactive) | > 100 µM (inactive) | > 100 µM (inactive) | > 100 µM (inactive) |  | 77.1 µM (inactive) | > 100 µM (inactive) | > 100 µM (inactive)
3 | S=C1NC(c2ccccc2)=NC(Cc2ccccc2)(c2ccccc2)N1c1ccccc1 (stereo not given) | > 100 µM (inactive) | 58.9 µM (inactive) | > 100 µM (inactive) | > 100 | 40.3 µM (inactive) | > 100 µM (inactive) | > 100 µM (inactive) | 42.1 µM (inactive) | 68.2 µM (inactive) | > 100 µM (inactive) | 37.9 µM (inactive) |  | 45.4 µM (inactive) | > 100 µM (inactive) | > 100 µM (inactive) | 
4 | CN1N=CSC12C(=O)N(c1ccc(Cl)cc1)C(=O)N2c1ccc(Cl)cc1 (stereo not given) | 3.1 µM (inactive) | 3.46 µM (inactive) | 3.15 µM (inactive) |  | 3.69 µM (inactive) | 2.99 µM (inactive) | 3.27 µM (inactive) | 5.24 µM (inactive) | 5.33 µM (inactive) | 5.41 µM (inactive) | 3.28 µM (inactive) |  | 3.82 µM (inactive) | 2.85 µM (inactive) |  | 3.95 µM (inactive)
5 | COc1c(CC(=O)c2ccccc2)c2ccccc2n1C(C)=O | > 100 µM (inactive) | > 100 µM (inactive) | > 100 µM (inactive) | > 100 | > 100 µM (inactive) | > 100 µM (inactive) | > 100 µM (inactive) | > 100 µM (inactive) | 34.5 µM (inactive) |  | 72.9 µM (inactive) | > 100 µM (inactive) | > 100 µM (inactive) | 56.8 µM (inactive) |  | > 100 µM (inactive)
6 | O=C1C(Cl)C(c2ccc(Cl)cc2)N1n1cnc2ccccc2c1=O (stereo not given) |  | > 100 µM (inactive) | > 100 µM (inactive) | 92 | > 100 µM (inactive) | 35.6 µM (inactive) | > 100 µM (inactive) | > 100 µM (inactive) | 76 µM (inactive) | > 100 µM (inactive) | 82.8 µM (inactive) | > 100 µM (inactive) | > 100 µM (inactive) | 59.7 µM (inactive) | > 100 µM (inactive) | 33.8 µM (inactive)
7 | O=C1N(Cl)C(=O)C(c2ccc(Cl)cc2)(c2ccc(Cl)cc2)N1Cl | > 100 µM (inactive) | 58.6 µM (inactive) | 72.6 µM (inactive) | 91.8 |  | > 100 µM (inactive) | 52.2 µM (inactive) | > 100 µM (inactive) | 22.6 µM (inactive) | > 100 µM (inactive) | 55.3 µM (inactive) | > 100 µM (inactive) | > 100 µM (inactive) | 92.5 µM (inactive) |  | > 100 µM (inactive)
8 | Cn1cc2ccccc2c1-c1nc(N)nc(F)n1 | 15.6 µM (inactive) | > 100 µM (inactive) | > 100 µM (inactive) | > 100 | > 100 µM (inactive) | > 100 µM (inactive) | > 100 µM (inactive) | > 100 µM (inactive) | 82.8 µM (inactive) | > 100 µM (inactive) | 50.9 µM (inactive) | > 100 µM (inactive) | > 100 µM (inactive) | 67.9 µM (inactive) | > 100 µM (inactive) | > 100 µM (inactive)
9 | CCOC(=O)C(NC(=O)c1ccc(/N=N/N(C)C)cc1)C(C)C (stereo not given) | > 100 µM (inactive) | > 100 µM (inactive) | > 100 µM (inactive) | > 100 | > 100 µM (inactive) | > 100 µM (inactive) | > 100 µM (inactive) | > 100 µM (inactive) |  | > 100 µM (inactive) | > 100 µM (inactive) | > 100 µM (inactive) | > 100 µM (inactive) | > 100 µM (inactive) | > 100 µM (inactive) | > 100 µM (inactive)
10 | C/N=C(/NC)N(C)c1nc(=[N+](C)C)ss1.[O-][Cl+3]([O-])([O-])[O-] | 39.4 µM (inactive) | > 100 µM (inactive) | 62.1 µM (inactive) | 92.7 | > 100 µM (inactive) | 31.2 µM (inactive) | > 100 µM (inactive) |  | > 100 µM (inactive) | > 100 µM (inactive) | > 100 µM (inactive) | > 100 µM (inactive) | > 100 µM (inactive) | > 100 µM (inactive) | > 100 µM (inactive) | > 100 µM (inactive)
11 | CCOc1ccc(NC(=O)C(=O)C(C(=O)c2ccc3ccccc3c2)C2OC(=O)c3ccccc32)cc1 (stereo not given) | 15.1 µM (inactive) | 20.2 µM (inactive) | 15.7 µM (inactive) | 13.7 | 17.5 µM (inactive) | 20.5 µM (inactive) | 5.09 µM (inactive) | 12.5 µM (inactive) |  | 13.3 µM (inactive) |  | 15.5 µM (inactive) | 9.62 µM (inactive) | 15.7 µM (inactive) | 30.9 µM (inactive) | 50.9 µM (inactive)
12 | O=S1(=O)OCCOS(=O)(=O)C1(I)I | 16.7 µM (inactive) | 26.2 µM (inactive) | 16.3 µM (inactive) |  | 19.6 µM (inactive) | 29.5 µM (inactive) |  | 19.7 µM (inactive) |  | 20.4 µM (inactive) | 26.3 µM (inactive) | 22 µM (inactive) | 26.5 µM (inactive) | 18.7 µM (inactive) |  | 21.9 µM (inactive)
13 | CCOC(=O)c1cc(OC(=O)CC)c2c(OC)ccc(OC)c2c1 |  | > 100 µM (inactive) | 70.1 µM (inactive) | 25.9 |  | 42.3 µM (inactive) | > 100 µM (inactive) | 52.4 µM (inactive) | 30.5 µM (inactive) |  |  | > 100 µM (inactive) | 89.3 µM (inactive) | 74.1 µM (inactive) | 46.1 µM (inactive) | 21.9 µM (inactive)
14 | CNC(=O)C(C)Oc1ccc(OCC2CCCCC2)cc1 (stereo not given) | > 100 µM (inactive) | > 100 µM (inactive) | > 100 µM (inactive) | > 100 |  | 65 µM (inactive) | 50.4 µM (inactive) | > 100 µM (inactive) | > 100 µM (inactive) | > 100 µM (inactive) | 60.7 µM (inactive) | > 100 µM (inactive) | > 100 µM (inactive) | 31.7 µM (inactive) |  | > 100 µM (inactive)
15 | CNC(=O)NCCCCC(NC(=O)OCc1ccccc1)C(=O)OCc1ccccc1 (stereo not given) | > 100 µM (inactive) | 31.6 µM (inactive) | 51.6 µM (inactive) | > 100 | 8.81 µM (inactive) | 44.3 µM (inactive) | 31.7 µM (inactive) | 22.3 µM (inactive) | 16.4 µM (inactive) |  | 20.6 µM (inactive) | 22 µM (inactive) | > 100 µM (inactive) | 18.2 µM (inactive) | 46 µM (inactive) | > 100 µM (inactive)
16 | CC/C(=N/O)C(C)C(=O)CCC(=O)Nc1ccc(Cl)cc1 (stereo not given) | > 100 µM (inactive) | > 100 µM (inactive) | > 100 µM (inactive) | 26.9 |  | 57.1 µM (inactive) | > 100 µM (inactive) | > 100 µM (inactive) | > 100 µM (inactive) | > 100 µM (inactive) | > 100 µM (inactive) | > 100 µM (inactive) | > 100 µM (inactive) | > 100 µM (inactive) | > 100 µM (inactive) | > 100 µM (inactive)
17 | CC(C)(C)c1cc(C(O)(C(F)(F)F)C(F)(F)F)c2c(c1)C(C(F)(F)F)(C(F)(F)F)OC(c1ccccc1)(C(C)(C)C)N2 (stereo not given) |  | > 100 µM (inactive) | 3.72 µM (inactive) | 3.56 |  | 3.07 µM (inactive) | 2.65 µM (inactive) | 14.4 µM (inactive) | 3.37 µM (inactive) |  | 6.56 µM (inactive) | 4.45 µM (inactive) | 4.65 µM (inactive) | 4.04 µM (inactive) | 18.8 µM (inactive) | 2.7 µM (inactive)
18 | Nc1nc[n+](Cc2ccccc2CCO)c2[nH]cnc12 | > 100 µM (inactive) | > 100 µM (inactive) |  | > 100 | > 100 µM (inactive) | > 100 µM (inactive) | > 100 µM (inactive) | > 100 µM (inactive) | > 100 µM (inactive) | > 100 µM (inactive) | > 100 µM (inactive) | > 100 µM (inactive) | > 100 µM (inactive) | 89.3 µM (inactive) | > 100 µM (inactive) | > 100 µM (inactive)
19 | CCCCCCCCCCCCCP(=O)(O)NCC(N)=O | > 100 µM (inactive) | > 100 µM (inactive) | 45.7 µM (inactive) | 39.9 | 37.8 µM (inactive) |  | > 100 µM (inactive) | 28.7 µM (inactive) | > 100 µM (inactive) | 48.4 µM (inactive) | 52 µM (inactive) | 53.2 µM (inactive) | 45.6 µM (inactive) | 27.7 µM (inactive) | > 100 µM (inactive) | > 100 µM (inactive)
